Test results reported in patent publication US9550796B2, “Pyrrolopyrrolone derivatives and their use as BET inhibitors” (NOVARTIS AG, priority 2013, dated 2017).
pIC50: −log10 of the molar value.

Assays:
[1] = system: THP-1; assay: Cell growth inhibition assay (CellTiter-Glo), THP-1; assay type: cell-based, human; details: THP-1 cells, 4 days; for GI50: Homo sapiens, 96 h, half-maximal growth inhibition; for THP-1 TGI: total growth inhibition
Outline: (§1)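 4-day CTG ATP readout, 37 °C/5% CO2; top conc 10 μM, 3-fold dilutions; 0.1% DMSO vehicle. Luminescence background-subtracted, normalised to day 0 plate; vehicle = 100%, medium = −100%. IC50/TGI by 4-parameter fit.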

[2] = system: K-562; assay: Cell growth inhibition assay (CellTiter-Glo), K-562; assay type: cell-based, human; details: K-562 cells, 4 days; for GI50: Homo sapiens, K562, 96 h, half-maximal growth inhibition; for K-562 TGI: total growth inhibition
Outline: as §1

[3] = molecular target: BRD4-NUT-fusion (Homo sapiens, UniProt O60885); assay: Nut-foci formation assay in HCC2494 NUT midline carcinoma cells; assay type: cell-based; details: 24 hours, nuclear BRD4-NUT foci by immunofluorescence microscopy, read-out: HCS Brd4-NUT IC50
Protocol: Nut-Foci Formation Assay […] Compound-mediated inhibition of BRD4 activity can be monitored by quantification of the number and intensity of nuclear BRD4-NUT foci using automated immunofluorescence microscopy. Briefly, 5000 cells in 20 μL fresh medium are seeded into Poly-D-Lysine-precoated 384-well plates and incubated overnight at 37° C. and 5% CO2, followed by addition of 5 μl medium containing compound dilutions at 5-fold their final intended concentration. […] Assay plates can be imaged using the appropriate filter sets on the Cellomics VTi automated fluorescence microscopy platform (ThermoFisher Scientific) and the population average of the number of NUT-foci per nucleus is quantified using the Cellomics Spot Detection BioApplication image analysis algorithm (ThermoFisher Scientific). […] Compound concentrations leading to half-maximal (IC50) inhibition of the aforementioned readout parameters are determined using standard four parameter curve fitting.

[4] = system: MV-4-11; assay: Cell growth inhibition assay (CellTiter-Glo), MV-4-11; assay type: cell-based, human; details: MV-4-11 cells, 4 days; for GI50: Homo sapiens, MV4-11, 96 h, half-maximal growth inhibition; for MV-4-11 TGI: total growth inhibition
Outline: as §1

[5] = molecular target: BRD2 (Homo sapiens (Human), UniProt P25440); assay: TR-FRET in-vitro binding assay for BRD2; details: 45 nM His-Brd2(60-472), acetyl-histone H4 (AcK 5, 8, 12, 16) peptide
Outline: (§2)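 Eight-point compound dilutions, delivered in 90% DMSO, were tested in a 13.55 μL final reaction. Reactions ran 35 minutes at 30° C before TR-FRET measurement.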

[6] = molecular target: BRD3 (Homo sapiens (Human), UniProt Q15059); assay: TR-FRET in-vitro binding assay for BRD3; details: 45 nM His-Brd3(20-477), acetyl-histone H4 (AcK 5, 8, 12, 16) peptide
Outline: as §2

Chain of BRD2 (P25440 60-472): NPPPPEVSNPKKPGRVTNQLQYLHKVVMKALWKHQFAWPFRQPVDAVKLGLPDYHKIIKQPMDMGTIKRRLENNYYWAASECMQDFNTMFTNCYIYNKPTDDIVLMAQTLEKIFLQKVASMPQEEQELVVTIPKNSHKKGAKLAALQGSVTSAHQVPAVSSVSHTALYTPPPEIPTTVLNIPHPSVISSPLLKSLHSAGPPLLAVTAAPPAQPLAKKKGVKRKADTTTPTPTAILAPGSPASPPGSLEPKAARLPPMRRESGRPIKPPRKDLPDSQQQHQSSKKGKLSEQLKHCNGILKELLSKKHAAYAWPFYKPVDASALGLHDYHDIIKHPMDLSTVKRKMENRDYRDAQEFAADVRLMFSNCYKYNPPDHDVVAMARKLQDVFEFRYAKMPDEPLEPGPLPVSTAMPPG
Chain of BRD3 (Q15059 20-477): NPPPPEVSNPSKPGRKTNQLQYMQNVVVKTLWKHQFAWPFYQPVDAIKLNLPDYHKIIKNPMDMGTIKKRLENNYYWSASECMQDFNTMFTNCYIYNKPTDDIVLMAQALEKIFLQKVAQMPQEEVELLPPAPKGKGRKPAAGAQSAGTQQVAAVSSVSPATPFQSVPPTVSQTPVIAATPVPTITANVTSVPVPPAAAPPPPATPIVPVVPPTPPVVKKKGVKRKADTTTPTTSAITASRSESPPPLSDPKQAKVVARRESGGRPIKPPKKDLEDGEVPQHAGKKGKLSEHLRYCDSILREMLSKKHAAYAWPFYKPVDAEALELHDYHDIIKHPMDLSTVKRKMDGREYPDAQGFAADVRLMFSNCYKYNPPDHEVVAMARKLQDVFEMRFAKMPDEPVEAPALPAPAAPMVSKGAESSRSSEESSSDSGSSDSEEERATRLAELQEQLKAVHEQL

Row | GI50 [1] [nM] | GI50 [2] [nM] | pIC50 [3] | GI50 [4] [nM] | pIC50 [5] | pIC50 [6] | SMILES | THP-1 TGI [1] [nM] | K-562 TGI [2] [nM] | MV-4-11 TGI [4] [nM]
1 | 17.4 | 97.4 | 8.02 | 7.71 | 7.44 | 7.46 | Cc1cn(C)c2c1C(=O)N(c1cc(C)c3nnc(C)n3c1)C2c1ccc(Cl)cc1 (centres unmarked) [Example 33, 6-(4-chlorophenyl)-5-(3,8-dimethyl-[1,2,4]triazolo[4,3-a]pyridin-6-yl)-1,3-di methyl-5,6-dihydropyrrolo[3,4-b]pyrrol-4(1H)-one] | 35.6 | >10000 | 20.05
2 | 43.8 | 241 | 7.57 | 19.4 | 7.43 | 7.49 | Cc1cn(C)c2c1C(=O)N(c1cc(C)c(=O)n(C)c1)C2c1ccc(Cl)cc1 (centres unmarked) [Example 34, 6-(4-chlorophenyl)-5-(1,5-dimethyl-6-oxo-1,6-dihydropyridin-3-yl)-1,3-dimethyl-5,6-dihydropyrrolo[3,4-b]pyrrol-4(1H)-one] | 99.4 | >10000 | 48.3
3 | 37.5 | 154 | 7.14 | 29.4 | 6.49 | 7.23 | COc1ncc(-c2cc3c(n2C)C(c2ccc(Cl)cc2)N(c2cc(Cl)c(=O)n(C)c2)C3=O)c(OC)n1 (centres unmarked) [Example 38, 5-(5-chloro-1-methyl-6-oxo-1,6-dihydropyridin-3-yl)-6-(4-chlorophenyl)-2-(2,4-dimethoxypyrimidin-5-yl)-1-methyl-5,6-dihydropyrrolo[3,4-b]pyrrol-4(1H)-one] | 72.7 | >10000 | 51.5
4 | 811 | 3190 | 5.30 | 227 |  | 7.28 | Cn1c(-c2ccc(=O)n(C)c2)cc2c1C(c1ccc(Cl)cc1)N(c1cc(Cl)c(=O)n(C)c1)C2=O (centres unmarked) [Example 42, 5-(5-chloro-1-methyl-6-oxo-1,6-dihydropyridin-3-yl)-6-(4-chlorophenyl)-1-methyl-2-(1-methyl-6-oxo-1,6-dihydropyridin-3-yl)-5,6-dihydropyrrolo[3,4-b]pyrrol-4(1H)-one] | 1470 | >10000 | 348
5 | 109 | 345 | 7.01 | 55.9 | 7.66 | 7.73 | Cc1cc(N2C(=O)c3cc(-c4ccn(C)c(=O)c4)n(C)c3C2c2ccc(Cl)cc2)cn(C)c1=O (centres unmarked) [Example 45, 6-(4-chlorophenyl)-5-(1,5-dimethyl-6-oxo-1,6-dihydropyridin-3-yl)-1-methyl-2-(1-methyl-2-oxo-1,2-dihydropyridin-4-yl)-5,6-dihydropyrrolo[3,4-b]pyrrol-4(1H)-one] | 213 | >10000 | 96.7
6 | 23.3 | 48.3 | 7.57 | 8.9 | 7.57 | 7.55 | COc1ncc(-c2cc3c(n2C)[C@@H](c2ccc(Cl)cc2)N(c2cc(C)c(=O)n(C)c2)C3=O)c(OC)n1 [Example 54, (R)-6-(4-chlorophenyl)-2-(2,4-dimethoxypyrimidin-5-yl)-5-(1,5-dimethyl-6-oxo-1,6-dihydropyridin-3-yl)-1-methyl-5,6-dihydropyrrolo[3,4-b]pyrrol-4(1H)-one] | 41.5 | >10000 | 18
7 | 30.3 | 103 | 7.41 | 24.8 | 7.52 | 7.66 | COc1ncc(-c2cc3c(n2C)[C@@H](c2ccc(Cl)cc2)N(c2cc(C)c(=O)n(C)c2)C3=O)cn1 [Example 56, (R)-6-(4-chlorophenyl)-5-(1,5-dimethyl-6-oxo-1,6-dihydropyridin-3-yl)-2-(2-methoxypyrimidin-5-yl)-1-methyl-5,6-dihydropyrrolo[3,4-b]pyrrol-4(1H)-one] | 50.7 | >10000 | 44.5
8 | 74.3 | 289 | 7.95 | 54.8 | 6.87 | 7.27 | Cc1cc2c(n1C)[C@@H](c1ccc(Cl)cc1)N(c1cc(Cl)c(=O)n(C)c1)C2=O [Example 75, (R)-5-(5-chloro-1-methyl-6-oxo-1,6-dihydropyridin-3-yl)-6-(4-chlorophenyl)-1,2-dimethyl-5,6-dihydropyrrolo[3,4-b]pyrrol-4(1H)-one] | 167 | >10000 | 102
9 | 88.9 | 342 | 8.00 | 57.6 | 6.70 | 7.02 | Cn1ccc2c1[C@@H](c1ccc(Cl)cc1)N(c1cc(Cl)c(=O)n(C)c1)C2=O [Example 77, (R)-5-(5-chloro-1-methyl-6-oxo-1,6-dihydropyridin-3-yl)-6-(4-chlorophenyl)-1-methyl-5,6-dihydropyrrolo[3,4-b]pyrrol-4(1H)-one] | 146 | >10000 | 96.3
